This is an account of results in publication doi:10.1101/2021.09.10.459855v1 (bioRxiv, 2021).

In data set [1] the test system is MHC II and CD86 on LPS-activated DCs. In words: DC surface marker expression, MHC II+CD86+ population. Format: cell-based, mouse. The following applies: 24 hours, 100 μM.
Data set [2] can be described thus: Micelle morphology by negative-stain TEM. Format: physicochemical.
Another data set is described as follows: Micelle surface charge. It counts as physicochemical. Particulars: 100 μM in deionized, distilled water (ddH2O); Malvern DLS Zetasizer.
Data set [3] has as its system LPS-activated DC TNF-α secretion. In words: DC TNF-α secretion. Particulars: for Decrease of DC TNF-α secretion: 6 hours. Format: cell-based, mouse.
Data set [4] deals with LPS-activated Mφ TNF-α secretion (mouse RAW 264.7). In words: Mφ TNF-α secretion. It counts as cell-based. Particulars: 6 hours.
The subject of data set [5] is LPS-activated DC CCL22 production. Nature of the data set: DC CCL22 production. Format: cell-based, mouse.

Turning to Vasoactive intestinal peptide [VIP], in data set [1], the “MHC II and CD86 surface markers on DCs” value was “failed to downregulate MHC II and CD86”. The “Aggregation / particle morphology” value in data set [2] (100 μM (highest concentration)) is “aggregate into spherical nanoparticles”. The Particle formation result in data set [2] (lower concentrations than 100 μM (data not shown)) is “no particle formation was observed”. In the data set “Micelle surface charge”, this substance yielded a Zeta potential of 6.82 ± 0.67 mV. Also, the “Decrease of DC TNF-α secretion” value was “slightly” in data set [3] (10 μM) and “more extensively” in data set [3] (100 μM). Also, the “DC TNF-α secretion” value in data set [3] (24 hours, 1 μM and 10 μM, versus LPS alone) is recorded as “suppressed TNF-α generation”. For the same substance, the “Mφ TNF-α secretion” value is on record as “cytokine secretion was suppressed” in data set [4] (100 μM) and “mild to moderate TNF-α suppression” in data set [4] (concentration-dependent (0.1 - 100 μM), versus LPS alone). The “DC CCL22 production” value in data set [5] (1 μM and 10 μM (Figure S7)) was “reduced CCL22 production”; in data set [5] (100 μM (Figure S7)), “enhanced CCL22 expression”.
